Literature values in US20110230564A1, “ANT4 INHIBITOR COMPOUNDS AND METHODS OF USE THEREOF” (priority 2008, published 2011).

Tested on: sperm
Conditions: 50 μM

CO[C@H](C/C=C\C=C\CC/C=C/C[C@H](C)/C=C/C(=C\C(=O)O)CC(=O)O)/C(C)=C\C=C(/C)C(=O)O [Bongkrekic acid]
sperm motility: almost completely immotile
